Reference: PubChem BioAssay AID1259407 (Chemical Carcinogenesis Research Information System (CCRIS), 2018)
Active and inactive are the calls of the source. How the calls were made is not given here.

System: CCRIS mutagenicity, Ames/micronucleus/aberration tests
Assay: CCRIS mutagenicity studies
[1] = Test System: AMES SALMONELLA TYPHIMURIUM, Strain/Indicator: TA97, Metabolic Activation: NONE, Method: PREINCUBATION
[2] = Test System: AMES SALMONELLA TYPHIMURIUM, Strain/Indicator: TA98, Metabolic Activation: NONE, Method: PREINCUBATION
[3] = Test System: AMES SALMONELLA TYPHIMURIUM, Strain/Indicator: TA100, Metabolic Activation: NONE, Method: PREINCUBATION
[4] = Test System: AMES SALMONELLA TYPHIMURIUM, Strain/Indicator: TA1535, Metabolic Activation: NONE, Method: PREINCUBATION

Measured: mutagenic call

O=C(O)/C=C/C=C/C(=O)O
inactive: End Point: IN VITRO CHROMOSOMAL ABERRATIONS, Test System: HUMAN PERIPHERAL LYMPHOCYTES, Metabolic Activation: NONE, Method: FISH- DUAL COLOR PROBES inactive; negative for translocations | [1] inactive; negative | Test System: AMES SALMONELLA TYPHIMURIUM, Strain/Indicator: TA97, Metabolic Activation: RAT, LIVER, S-9, AROCLOR 1254, Method: PREINCUBATION inactive; negative | Test System: AMES SALMONELLA TYPHIMURIUM, Strain/Indicator: TA97, Metabolic Activation: RAT, LIVER, S-9, PHENOBARBITAL AND 5,6-BENZOFLAVONE, Method: PREINCUBATION inactive; negative | [2] inactive; negative | Test System: AMES SALMONELLA TYPHIMURIUM, Strain/Indicator: TA98, Metabolic Activation: RAT, LIVER, S-9, AROCLOR 1254, Method: PREINCUBATION inactive; negative | Test System: AMES SALMONELLA TYPHIMURIUM, Strain/Indicator: TA98, Metabolic Activation: RAT, LIVER, S-9, PHENOBARBITAL AND 5,6-BENZOFLAVONE, Method: PREINCUBATION inactive; negative | [3] inactive; negative | Test System: AMES SALMONELLA TYPHIMURIUM, Strain/Indicator: TA100, Metabolic Activation: RAT, LIVER, S-9, AROCLOR 1254, Method: PREINCUBATION inactive; negative | Test System: AMES SALMONELLA TYPHIMURIUM, Strain/Indicator: TA100, Metabolic Activation: RAT, LIVER, S-9, PHENOBARBITAL AND 5,6-BENZOFLAVONE, Method: PREINCUBATION inactive; negative | Test System: AMES SALMONELLA TYPHIMURIUM, Strain/Indicator: TA102, Metabolic Activation: NONE, Method: PREINCUBATION inactive; negative | Test System: AMES SALMONELLA TYPHIMURIUM, Strain/Indicator: TA102, Metabolic Activation: RAT, LIVER, S-9, AROCLOR 1254, Method: PREINCUBATION inactive; negative | Test System: AMES SALMONELLA TYPHIMURIUM, Strain/Indicator: TA102, Metabolic Activation: RAT, LIVER, S-9, PHENOBARBITAL AND 5,6-BENZOFLAVONE, Method: PREINCUBATION inactive; negative | Test System: AMES SALMONELLA TYPHIMURIUM, Strain/Indicator: TA104, Metabolic Activation: NONE, Method: PREINCUBATION inactive; negative | Test System: AMES SALMONELLA TYPHIMURIUM, Strain/Indicator: TA104, Metabolic Activation: RAT, LIVER, S-9, AROCLOR 1254, Method: PREINCUBATION inactive; negative | Test System: AMES SALMONELLA TYPHIMURIUM, Strain/Indicator: TA104, Metabolic Activation: RAT, LIVER, S-9, PHENOBARBITAL AND 5,6-BENZOFLAVONE, Method: PREINCUBATION inactive; negative | [4] inactive; negative | Test System: AMES SALMONELLA TYPHIMURIUM, Strain/Indicator: TA1535, Metabolic Activation: RAT, LIVER, S-9, AROCLOR 1254, Method: PREINCUBATION inactive; negative | Test System: CHINESE HAMSTER V-79, Strain/Indicator: V-79 (HGPRT)/8-AZAGUANINE, Metabolic Activation: NONE inactive; negative | Test System: CHINESE HAMSTER V-79, Strain/Indicator: V-79/6-THIOGUANINE, Metabolic Activation: NONE inactive; negative | Test System: E. COLI, Strain/Indicator: WP2 UVRA, Metabolic Activation: NONE, Method: PREINCUBATION inactive; negative | Test System: E. COLI, Strain/Indicator: WP2 UVRA, Metabolic Activation: RAT, LIVER, S-9, AROCLOR 1254, Method: PREINCUBATION inactive; negative
active: End Point: IN VITRO CHROMOSOMAL ABERRATIONS, Test System: HUMAN PERIPHERAL LYMPHOCYTES, Metabolic Activation: NONE active; positive (ploidy changes)

CCc1ccc(N)cc1
inactive: Test System: E. COLI, Strain/Indicator: WP2 UVRA, Metabolic Activation: NONE, Method: FLUCTUATION TEST inactive; negative

OCC12OOC1(CO)c1ccccc1O2 (stereo not given)
inactive: [3] inactive; negative

c1ccc(CSCc2ccccc2)cc1
inactive: Test System: AMES SALMONELLA TYPHIMURIUM, Strain/Indicator: TA97, Metabolic Activation: HAMSTER, LIVER, S-9, AROCLOR 1254 (10%), Method: PREINCUBATION inactive; negative | Test System: AMES SALMONELLA TYPHIMURIUM, Strain/Indicator: TA97, Metabolic Activation: HAMSTER, LIVER, S-9, AROCLOR 1254 (30%), Method: PREINCUBATION inactive; negative | [1] inactive; negative | Test System: AMES SALMONELLA TYPHIMURIUM, Strain/Indicator: TA97, Metabolic Activation: RAT, LIVER, S-9, AROCLOR 1254 (10%), Method: PREINCUBATION inactive; negative | Test System: AMES SALMONELLA TYPHIMURIUM, Strain/Indicator: TA97, Metabolic Activation: RAT, LIVER, S-9, AROCLOR 1254 (30%), Method: PREINCUBATION inactive; negative | Test System: AMES SALMONELLA TYPHIMURIUM, Strain/Indicator: TA98, Metabolic Activation: HAMSTER, LIVER, S-9, AROCLOR 1254 (10%), Method: PREINCUBATION inactive; negative | Test System: AMES SALMONELLA TYPHIMURIUM, Strain/Indicator: TA98, Metabolic Activation: HAMSTER, LIVER, S-9, AROCLOR 1254 (30%), Method: PREINCUBATION inactive; negative | [2] inactive; negative | Test System: AMES SALMONELLA TYPHIMURIUM, Strain/Indicator: TA98, Metabolic Activation: RAT, LIVER, S-9, AROCLOR 1254 (10%), Method: PREINCUBATION inactive; negative | Test System: AMES SALMONELLA TYPHIMURIUM, Strain/Indicator: TA98, Metabolic Activation: RAT, LIVER, S-9, AROCLOR 1254 (30%), Method: PREINCUBATION inactive; negative | Test System: AMES SALMONELLA TYPHIMURIUM, Strain/Indicator: TA100, Metabolic Activation: HAMSTER, LIVER, S-9, AROCLOR 1254 (10%), Method: PREINCUBATION inactive; negative | Test System: AMES SALMONELLA TYPHIMURIUM, Strain/Indicator: TA100, Metabolic Activation: HAMSTER, LIVER, S-9, AROCLOR 1254 (30%), Method: PREINCUBATION inactive; negative | [3] inactive; negative | Test System: AMES SALMONELLA TYPHIMURIUM, Strain/Indicator: TA100, Metabolic Activation: RAT, LIVER, S-9, AROCLOR 1254 (10%), Method: PREINCUBATION inactive; negative | Test System: AMES SALMONELLA TYPHIMURIUM, Strain/Indicator: TA100, Metabolic Activation: RAT, LIVER, S-9, AROCLOR 1254 (30%), Method: PREINCUBATION inactive; negative | Test System: AMES SALMONELLA TYPHIMURIUM, Strain/Indicator: TA1535, Metabolic Activation: HAMSTER, LIVER, S-9, AROCLOR 1254 (10%), Method: PREINCUBATION inactive; negative | Test System: AMES SALMONELLA TYPHIMURIUM, Strain/Indicator: TA1535, Metabolic Activation: HAMSTER, LIVER, S-9, AROCLOR 1254 (30%), Method: PREINCUBATION inactive; negative | [4] inactive; negative | Test System: AMES SALMONELLA TYPHIMURIUM, Strain/Indicator: TA1535, Metabolic Activation: RAT, LIVER, S-9, AROCLOR 1254 (10%), Method: PREINCUBATION inactive; negative | Test System: AMES SALMONELLA TYPHIMURIUM, Strain/Indicator: TA1535, Metabolic Activation: RAT, LIVER, S-9, AROCLOR 1254 (30%), Method: PREINCUBATION inactive; negative
